Source: patent US9510598B2, “Nitrogen-containing heterocyclic compounds for plant disease control” (BAYER CROPSCIENCE AG, priority 2012, dated 2016)
Like-named read-outs stand apart in the source and are kept apart here.

Assays:
Sphaerotheca fuliginea = assay: In vivo preventive test on Sphaerotheca fuliginea (powdery mildew on cucurbits); conditions: 500 ppm; gherkin plants sprayed 24 hours before contamination; grading 12 days after contamination vs control plants
Method: Gherkin plants (“Vert petit de Paris” variety), sown in starter cups on a 50/50 peat soil-pozzolana substrate and grown at 24° C., are treated at the Z11 cotyledon stage by spraying with the active ingredient prepared as described above. Plants, used as controls, are treated with the mixture of acetone/tween/DMSO/water not containing the active material. After 24 hours, the plants are contaminated by spraying the cotyledons with an aqueous suspension of Sphaerotheca fuliginea spores (100 000 spores per ml). The spores are collected from infected plants. […] Grading (% of efficacy) is carried out 12 days after the contamination, in comparison with the control plants.

Septoria tritici = assay: In vivo preventive test on Septoria tritici (leaf spot on wheat); conditions: 500 ppm; wheat plants sprayed 24 hours before contamination; grading 21 to 28 days after contamination vs control plants
Outline: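 Scipion wheat at 1-leaf stage sprayed with compound, controls receiving acetone/tween/DMSO/water vehicle; 24 h later leaves inoculated with Septoria tritici spores (500 000 spores per ml). Efficacy (%) graded versus control plants 21 to 28 days after contamination.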

[1] = type: physicochemical
Botrytis cinerea = assay: In vivo preventive test on Botrytis cinerea (grey mould); conditions: 500 ppm; gherkin plants sprayed 24 hours before contamination; grading 4-5 days after contamination vs control plants
Method: Gherkin plants (“Vert petit de Paris” variety), sown in starter cups on a 50/50 peat soil-pozzolana substrate and grown at 24° C., are treated at the Z11 cotyledon stage by spraying with the active ingredient prepared as described above. Plants, used as controls, are treated with the mixture of acetone/tween/DMSO/water not containing the active material. After 24 hours, the plants are contaminated by spraying the cotyledons with an aqueous suspension of cryopreserved Botrytis cinerea spores (50 000 spores per ml). The spores are suspended in a nutrient solution composed of 10 g/L of PDB, 50 g/L of D-Fructose, 2 g/L of NH4NO3 and 1 g/L of KH2PO4. The contaminated gherkin plants are incubated at 17° C. and at 80% relative humidity. Grading (% of efficacy) is carried out 4-5 days after the contamination, in comparison with the control plants.

[2] = method [a]: HPLC/LC-MS on reversed phase at pH 2.7, 0.1% formic acid in water / acetonitrile, gradient 10% to 95% acetonitrile
[3] = HPLC on reversed phase columns, method [a]: pH 2.7, 0.1% formic acid in water / acetonitrile, linear gradient 10% to 95% acetonitrile
[4] = method [a]: HPLC/LC-MS on reversed phase at pH 2.7, 0.1% formic acid in water / acetonitrile, linear gradient 10% to 95% acetonitrile

SMILES | log P [1, 3] | % of efficacy (protection) (Sphaerotheca fuliginea) [%] | % of efficacy (protection) (Septoria tritici) [%] | % of efficacy (protection) (Botrytis cinerea) [%] | further results
CC1COCCC1NC(=O)C1(C)CC(c2ccc3ncc(Br)cc3c2)=NO1 (mixture of isomers) [compound 309] |  | 100 | 86 |  | 
CCOCC(C)NC(=O)C1(C)CC(c2ccc3ncc(Br)cc3c2)=NO1 (mixture of isomers) [compound 374] |  | 100 | 100 |  | 
C#Cc1cnc2ccc(C3=NOC(C)(C(=O)NC(C)CC(=O)OCC)C3)cc2c1 (mixture of isomers) [compound 453] |  | 88 |  |  | log P [1, 2]: 2.57[a]
COCC(C)NC(=O)C1(C)CC(c2ccc3ncc(Br)cc3c2)=NO1 (racemic) [compound 368] |  | 100 | 100 |  | log P [1, 2]: 2.54[a]
CCC(COC)NC(=O)C1(C)CC(c2ccc3ncc(Br)cc3c2)=NO1 (racemic) [compound 377] |  | 98 | 100 |  | log P [1, 2]: 2.88[a]
C#Cc1cnc2ccc(C3=NOC(CC)(C(=O)NC4CC4)C3)cc2c1 (racemic) [compound 439] |  | 78 | 93 |  | log P [1, 2]: 2.44[a]
COC1(C(=O)NC(C)C)CC(c2ccc3ncc(Br)cc3c2)=NO1 (single isomer, unassigned) [compound 284] | 2.58[a] | 100 | 100 |  | 
CC(C)NC(=O)C1(C)CC(c2ccc3ncc(C#C[Si](C)(C)C)cc3c2)=NO1 (stereo not shown) [Compound No. 150] |  | 95 | 100 |  | chromatographic logP ([1]; HPLC reversed phase, pH 2.7, 0.1% formic acid in water / acetonitrile, linear gradient 10% to 95% acetonitrile, calibration with alkan-2-ones, read-out: log P (HCOOH)): 4.41
CCn1cc(CNC(=O)C2(C(F)(F)F)CC(c3cc4cc(Br)cnc4c(F)c3F)=NO2)c(C)n1 (stereo not shown) [compound 6] |  | 89 | 71 |  | Log P ([1]; method [a]: HPLC/LC-MS on reversed phase at pH 2.7, 0.1% formic acid in water and acetonitrile, linear gradient 10% to 95% acetonitrile): 3.23^[a]
CSc1cnc2ccc(C3=NOC(C)(C(=O)NC(C)C)C3)cc2c1 (stereo not shown) [compound 80] |  | 93 |  |  | log P [1, 4]: 2.44^[a]
Cn1cc(CNC(=O)C2(C)CC(c3ccc4ncc(Br)cc4c3)=NO2)cn1 (stereo not shown) [compound 176] |  | 83 | 93 |  | log P [1, 4]: 2.07^[a]
C#Cc1cnc2ccc(C3=NOC(C)(C(=O)NC4CC4)C3)cc2c1 (stereo not shown) [compound 314] | 2.13[a] | 81 | 100 |  | 
CC1(C(=O)NCCCOCC(F)(F)F)CC(c2ccc3ncc(Br)cc3c2)=NO1 (stereo not shown) [compound 323] | 3.11[a] | 81 | 78 |  | 
CC(NC(=O)C1(C)CC(c2ccc3ncc(Br)cc3c2)=NO1)C1CC1 (stereo not shown) [compound 332] | 3.17[a] | 98 | 100 |  | 
C#Cc1cnc2ccc(C3=NOC(C)(C(=O)NC(C)c4ccsc4)C3)cc2c1 (stereo not shown) [compound 336] | 2.96[a] | 81 | 100 |  | 
C#Cc1cnc2ccc(C3=NOC(C)(C(=O)NC(C)C(F)(F)F)C3)cc2c1 (stereo not shown) [compound 343] | 2.77[a] | 100 | 100 |  | 
CC(NC(=O)C1(C)CC(c2ccc3ncc(Br)cc3c2)=NO1)C(F)(F)F (stereo not shown) [compound 345] | 3.13[a] | 94 | 100 |  | 
C#Cc1cnc2ccc(C3=NOC(OC)(C(=O)NCCCOCC)C3)cc2c1 (stereo not shown) [compound 408] |  | 100 | 100 |  | log P [1, 2]: 2.39[a]
CCCOc1cnc2ccc(C3=NOC(C)(C(=O)NCc4cn(CC)nc4C)C3)cc2c1 (stereo not shown) [compound 418] |  |  | 83 | 79 | log P [1, 2]: 2.46[a]
C#Cc1cnc2ccc(C3=NOC(C)(C(=S)NCc4cnc(C)cn4)C3)cc2c1 (stereo not shown) [compound 481] |  |  | 86 | 97 | log P [1, 2]: 2.84[a]
CC1(C(=O)NCC(F)(F)F)CC(c2ccc3ncc(Br)cc3c2)=NO1 (stereo not shown) [compound 493] |  |  | 97 | 100 | log P [1, 2]: 2.84[a]
CCC1(C(=O)NC2CCC2)CC(c2ccc3ncc(Br)cc3c2)=NO1 (stereo not shown) [compound 498] |  |  | 71 | 92 | log P [1, 2]: 3.31[a]
C#Cc1cnc2ccc(C3=NOC(C)(C(=O)NC4CCOCC4)C3)cc2c1 (stereo not shown) [compound 502] |  |  | 100 | 98 | log P [1, 2]: 2.01[a]
C#CCONC(=O)C1(C)CC(c2ccc3ncc(C#C)cc3c2)=NO1 (stereo not shown) [compound 503] |  | 78 | 71 |  | log P [1, 2]: 1.95[a]
C#Cc1cnc2ccc(C3=NOC(C)(C(=O)NC(C)(C#N)C4CC4)C3)cc2c1 (stereo not shown) [compound 523] | 2.75[a] |  | 97 | 73 | 
C#Cc1cnc2ccc(C3=NOC(C)(C(=O)Nc4cn(CC)nc4C)C3)cc2c1 (stereo not shown) [compound 529] | 2.26[a] |  | 100 | 100 | 
Cc1cnc(CNC(=O)C2(C)CC(c3cc(C)c4ncc(Br)cc4c3)=NO2)cn1 (stereo not shown) [compound 537] | 2.84[a] |  | 100 | 100 | 
CCOCCCNC(=O)C1(C)CC(c2cc(Cl)c3ncc(Br)cc3c2)=NO1 (stereo not shown) [compound 542] | 3.25[a] |  | 83 | 100 | 
CCOCCCNC(=O)C1(C(F)F)CC(c2ccc3ncc(I)cc3c2)=NO1 (stereo not shown) [compound 619] | 3.19[a] |  | 71 | 73 | 
C=CC1(C(=O)NC(C)C)CC(c2ccc3ncc(I)cc3c2)=NO1 (stereo not shown) [compound 731] |  | 75 | 100 |  | log P ([1]; HPLC on reversed phase columns, method [a]: pH 2.7, 0.1% formic acid in water and acetonitrile, linear gradient 10% to 95% acetonitrile): 3.21[a]

The next lines start with results.

log P [1, 3] | SMILES | % of efficacy (protection) (Sphaerotheca fuliginea) [%] | % of efficacy (protection) (Septoria tritici) [%] | % of efficacy (protection) (Botrytis cinerea) [%] | further results
2.75^[a] | CCn1cc(CNC(=O)C23CCCC2C(c2ccc4ncc(Br)cc4c2)=NO3)c(C)n1 (stereo not shown) [compound 261] | 85 | 97 |  | 
2.81[a] | CCSc1cnc2ccc(C3=NOC(C)(C(=O)NC(C)C)C3)cc2c1 (stereo not shown) [compound 277] | 71 |  |  | 
2.77[a] | C#Cc1cnc2ccc(C3=NOC(C)(C(=O)NCCCOCC(F)(F)F)C3)cc2c1 (stereo not shown) [compound 326] | 88 | 98 |  | 
2.28[a] | C#Cc1cnc2ccc(C3=NOC(C)(C(=O)NC(C)c4nccs4)C3)cc2c1 (stereo not shown) [compound 334] | 94 | 100 |  | 
1.44[a] | CC(NC(=O)C1(C)CC(c2ccc3ncc(Br)cc3c2)=NO1)c1ccncc1 (stereo not shown) [compound 337] | 88 | 78 |  | 
2.18[a] | C#Cc1cnc2ccc(C3=NOC(C)(C(=O)NC(C)C4CCOC4)C3)cc2c1 (stereo not shown) [compound 341] | 98 | 100 |  | 
2.68[a] | C#Cc1cnc2ccc(C3=NOC(C)(C(=O)NC(C)c4ccc(Cl)nc4)C3)cc2c1 (stereo not shown) [compound 525] |  | 93 | 100 | 
2.39[a] | CCNC(=O)C1(C)CC(c2ccc3ncc(Br)cc3c2)=NO1 (stereo not shown) [compound 528] |  | 97 | 99 | 
3.48[a] | CC1(C(=O)NC2CCC2)CC(c2cc(Cl)c3ncc(Br)cc3c2)=NO1 (stereo not shown) [compound 539] |  | 83 | 100 | 
2.78[a] | CCn1cc(CNC(=O)C2(OC)CC(c3cc(Cl)c4ncc(Br)cc4c3)=NO2)c(C)n1 (stereo not shown) [compound 566] | 89 | 100 |  | 
3.39[a] | CCOCCCNC(=O)C1(OC)CC(c2cc(C)c3ncc(Br)cc3c2)=NO1 (stereo not shown) [compound 597] |  | 100 | 100 | 
